Patent US20090030079A1 (priority 2007, published 2009)
Where two headings read alike, the source gives them in different places.

What was measured:
[1] = Decorporation of Cobalt-60: tissue distribution and excretion of IV administered Co-60 in rats; assay type: in vivo, Male Wistar-Han rats; conditions: single oral dose 15 mg/kg; for Co-60 Dose % for animal group: single IV Co-60 14 KBq, 48 hr post exposure
Procedure: Materials. Chloride stock solution of ^60Co as ^60CoCl2 was diluted with sterile saline solution to adjust to the desired activity and used for the IV dosing. Activity of the dosing solution was determined using automated Wallac 1480 (Perkin Elmer) gamma counter equipped with 3 inch NaI(TI) crystal shielded detector.
Animals. Male Wistar-Han rats were obtained from Charles River Breeding Laboratory (Raleigh, N.C.) with indwelling jugular vein cannula. Animals were provided food and water ad libitum during acclimatization. The light cycle was 12 hour light/12 hour dark and relative humidity and temperature maintained at 50±15% and 22±2° C. All animal use protocols were approved by the Institutional Animal Care and Use Committee at Battelle, Pacific Northwest Division and studies were performed according to the “Guide for the Care and Use of Laboratory Animals” (National Research Council, Washington D.C., 1996).
Dosing regimen. Animals were restricted from food overnight prior to exposure. At the time of exposure, groups of animals (N=6) received a single intravenous (IV) injection (0.2 mL) of ^60Co solution at 14.0±0.6 KBq dose in sterile saline via an indwelling jugular vein cannula. […] The actual doses delivered were calculated based on the individual animal weights (Table 3). One group of animals was dosed with the radionuclide without subsequent administration of the chelation material to serve as control group. Following dosing, animals were placed in Nalgene metabolism cages for separate collection of urine and feces. […] Animals were sacrificed 48 hr post radionuclide administration. At sacrifice, blood and tissues (liver, kidney, spleen, gastrointestinal tract, muscle, bone, bone marrow, and lung) were collected, weighed and counted for radioactivity using a Wallac 1480 gamma counter. Gamma count data were normalized to percent administered dose after adjusting the grams of tissue collected for total organ mass.
Data statistical evaluation. Each data group was subjected to Dixon's Q-test to evaluate for potential outliers. In this test Q parameter of 0.625 (N=6, 95% confidence level, a=0.05) was used (1). For each tissue, a preliminary F-test (95% confidence level, a=0.05) for the equality of variances of the control and each treatment group was performed using Excel software. If the calculated probability p value was less than 0.05, the variances were assumed to be not equal. Based on this information, “T-test: Two-Sample Assuming Unequal Variances” or “T-test: Two-Sample Assuming Equal Variances” (95% confidence level, a=0.05) was performed using Excel software. The calculated p-value less than 0.05 provides evidence to reject the null hypothesis of equal means. The obtained statistical parameters listed in Table 4 served as guidelines for data evaluation (Table 5; calculation assumes that total skeleton, blood, or muscle is approximately 7.3, 6, or 40% of the body weight of the animal, respectively; Co-60 in skeleton is calculated based on the femur data—R. P. Brown, M. D. Delp, S. L. Undstedt, L. R. Rhomberg, and R. P. Beliles, Physiological Parameter Values for Physiologically Based Pharmacokinetic Models. Toxicology and Industrial Health, 1997, 13(4): 407-484).

[2] = Decorporation of Polonium-210: tissue distribution of IV administered Po-210 in rats; assay type: in vivo, Wistar-Han rats; conditions: for % Reduction of Po-210 vs Po-210 Control / effect on polonium-210 level (in words): oral 15 mg/kg x 5, day 6; for Po-210 dpm/gm for animal group: single IV Po-210 approx. 90 kBq, oral 15 mg/kg every 24 h x 5, sacrifice day 6
Procedure: The digested sample was diluted with distilled water to reduce the nitric acid to approximately 1 M. An aliquot of the resulting solution was added to Ultima Gold XR liquid scintillation cocktail (Packard BioScience, Meriden, Conn.), counted and corrected for possible quenching.

[3] = Cu^2+, cited from earlier work
[4] = Hg^2+, cited from earlier work
[5] = Ni^2+, cited from earlier work
[6] = Zn^2+, cited from earlier work
[7] = Cd^2+, cited from earlier work
[8] = Co^2+, cited from earlier work
[9] = Pb^2+, cited from earlier work
[10] = Ag^1+; cited from earlier work
[11] = Pd^2+, cited from earlier work
[12] = Cr^2+; cited from earlier work
[13] = Fe^2+; cited from earlier work

NCCNCCNCCN [Trientine, N,N′-bis (2-aminoethyl)-1,2-ethanediamine]
Co-60 Dose % for animal group ([1]; Blood): 0.18 ± 0.08% | % Reduction of Co-60 vs Co-60 Control ([1]; Blood, 48 hr): −98% | Co-60 Dose % for animal group ([1]; Bone Marrow): Below detection | Co-60 Dose % for animal group ([1]; Intestine): 0.98 ± 0.23% | % Reduction of Co-60 vs Co-60 Control ([1]; Intestine, 48 hr): 44% | Co-60 Dose % for animal group ([1]; Kidney): 0.62 ± 0.04% | % Reduction of Co-60 vs Co-60 Control ([1]; Kidney, 48 hr): 13% | Co-60 Dose % for animal group ([1]; Liver): 2.00 ± 0.47% | % Reduction of Co-60 vs Co-60 Control ([1]; Liver, 48 hr): 0% | Co-60 Dose % for animal group ([1]; Lung): 0.13 ± 0.05% | % Reduction of Co-60 vs Co-60 Control ([1]; Lung, 48 hr): 0% | Co-60 Dose % for animal group ([1]; Muscle): 1.13 ± 0.24% | % Reduction of Co-60 vs Co-60 Control ([1]; Muscle, 48 hr): 0% | Co-60 Dose % for animal group ([1]; Spleen): 0.058 ± 0.013% | % Reduction of Co-60 vs Co-60 Control ([1]; Spleen, 48 hr): 0% | Co-60 Dose % for animal group ([1]; Stomach): 0.072 ± 0.012% | % Reduction of Co-60 vs Co-60 Control ([1]; Stomach, 48 hr): 0% | Co-60 Dose % for animal group ([1]; Total Skeleton (from femur data)): 0.41 ± 0.22% | % Reduction of Co-60 vs Co-60 Control ([1]; Total Skeleton, 48 hr): 35% | effect on blood levels of Co-60 ([1]; 48 hr): elevated | effect on fecal elimination of Co-60 ([1]; day 1 post exposure): decreased | effect on urinary elimination of Co-60 ([1]; day 1 post exposure): noticeably enhanced | effect on total Co-60 excretion (urine and feces) ([1]; monitored 2 days, not statistically significant, 15 mg/kg): appeared to accelerate | % Reduction of Po-210 vs Po-210 Control ([2]; Blood): 0% | Po-210 dpm/gm for animal group ([2]; Blood): 33273 ± 7289 dpm/gm | Po-210 dpm/gm for animal group ([2]; Femur): 22415 ± 2148 dpm/gm | % Reduction of Po-210 vs Po-210 Control ([2]; Kidney): 0% | Po-210 dpm/gm for animal group ([2]; Kidney): 187883 ± 15839 dpm/gm | % Reduction of Po-210 vs Po-210 Control ([2]; Liver): 14% | effect on polonium-210 level (in words) ([2]; Liver): reduced | Po-210 dpm/gm for animal group ([2]; Liver): 120883 ± 21221 dpm/gm | % Reduction of Po-210 vs Po-210 Control ([2]; Lung): 11% | Po-210 dpm/gm for animal group ([2]; Lung): 74512 ± 22281 dpm/gm | Po-210 dpm/gm for animal group ([2]; Spleen): 269303 ± 47082 dpm/gm | % Reduction of Po-210 vs Po-210 Control ([2]; femur): 15% | effect on polonium-210 level (in words) ([2]; femur): reduced | % Reduction of Po-210 vs Po-210 Control ([2]; spleen): 36% | effect on polonium-210 level (in words) ([2]; spleen): reduced | binding stability constant (log K) [3]: 20.05 (Cu^2+) | binding stability constant (log K) ([3]; listed as trientine): very strongly | binding stability constant (log K) [4]: 24.5 | binding stability constant (log K) ([4]; listed as trientine): very strongly | binding stability constant (log K) [5]: 13.8 | binding stability constant (log K) ([5]; listed as trientine): very strongly | binding stability constant (log K) [6]: 12 | binding stability constant (log K) ([6]; listed as trientine): fairly strong | binding stability constant (log K) [7]: 10.6 | binding stability constant (log K) ([7]; listed as trientine): fairly strong | binding stability constant (log K) [8]: 10.9 | binding stability constant (log K) ([8]; listed as trientine): fairly strong | binding stability constant (log K) [9]: 10.4 | binding stability constant (log K) ([9]; listed as trientine): fairly strong | binding stability constant (log K) [10]: 7.5 | binding stability constant (log K) [11]: 39.4 | binding stability constant (log K) ([11]; listed as trientine): very strongly | binding stability constant (log K) [12]: 7.9 | binding stability constant (log K) [13]: 7.76
